This passage reports TGI and GI50 results from PubChem BioAssay (NCI).

Test in all cases: NCI tumour cell line growth inhibition, 48 h
The test system of assay [1] is COLO 205 colon.
Assay [2] deals with A549 NSCLC.
Assay [3] relates to NCI-H460 lung.
The test system of assay [4] is NCI-H23 lung.
The subject of assay [5] is 786-0 renal.
Assay [6] relates to MOLT-4 leukemia.
The test system of assay [7] is NCI-H522 lung.
In assay [8] the test system is SNB-19 CNS.
Assay [9] concerns OVCAR-8 ovarian.
The subject of assay [10] is HT29 colon.
In assay [11] the test system is MDA-N.

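Growth conditions: 96-well plates. Treatment: test compound, 48 hours, 5 concentrations. Analysis: linear interpolation between bracketing concentrations; unreached endpoints set to highest concentration. At the GI50, growth is halved. At the TGI there is no net growth.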 A value given as a limit tells only on which side of the number the result lay.

As for `N#Cc1c(-c2ccc(Cl)cc2)[nH]c(=O)n(C2OC(CO)C(O)C(O)C2O)c1=O` (stereo not given), the TGI in assay [1], in assay [2], in assay [3], in assay [4], in assay [5] and in assay [6] was greater than 100 µM throughout. Also, the TGI in [7], in [8], in [9] and in [10] was greater than 100 µM in each case.
In the case of `O=c1ccn(COC(COCc2ccccc2)COCc2ccccc2)c(=O)[nH]1`, the TGI in assay [1], in [3], in assay [4], in assay [6], in assay [11] and in assay [8] was greater than 100 µM each time. In addition, the TGI in assay [9] and in assay [10] was greater than 100 µM in each case.
Consider `CC(C)NC(=O)OCc1c(CO)c2c(n1C)-c1ccccc1CC2`, for which the TGI was 44.7 µM in assay [1]; greater than 100 µM in assay [2]; 67.7 µM in assay [3]; greater than 65.1 µM in assay [4]; 48.9 µM in assay [6]; 31.3 µM in assay [7]. Moreover, the TGI in assay [8] was greater than 100 µM; in [9], 57.6 µM; in [10], 54.5 µM.
As to `O=C(CN1CCOCC1)c1ccc2c(c1)oc(=O)n2CCN1CCOCC1`, the TGI in [1], in assay [5], in assay [6], in [11], in assay [8] and in [9] was greater than 100 µM each time. Besides, the TGI in assay [10] was greater than 100 µM.
`COC(=O)c1ccc(N=NN(C)COc2ccc(Br)cc2)cc1`: the TGI was greater than 100 µM in assay [1]; greater than 100 µM in assay [2]; greater than 100 µM in [3]; greater than 100 µM in assay [4]; greater than 92.6 µM in [6]; greater than 100 µM in [7]. Also, the TGI in [8], in [9] and in assay [10] was greater than 100 µM each time.
Turning to `Cc1ccc(/C(O)=C/C(=O)C(=O)NC23CC4CC(CC(C4)C2)C3)cc1`, the TGI in assay [1], in assay [2], in [4], in assay [5], in [6] and in assay [11] was greater than 10 µM each time. Besides, the TGI in assay [9] and in [10] was greater than 10 µM in each case.
Consider `CC(=O)Nc1ccc2c3c(cc(O)c2c1)N(C(=O)CCCCCCC(=O)N1CC(CCl)c2c1cc(O)c1cc(NC(C)=O)ccc21)CC3CCl` (stereo not given), for which the TGI in assay [1] is 0.0161 µM; in assay [2] it was greater than 100 µM; in assay [4], 0.0228 µM; in [5], 0.0204 µM; in [7] it was 0.0695 µM; in assay [8], 0.913 µM. Further, the results for the TGI in [9] and in assay [10] were 0.346 µM and greater than 100 µM, respectively.
For the compound `CC(C)NC(=O)N(Nc1ccccc1)C(C)(C)C`, the TGI in [1], in [2], in assay [3], in assay [4], in assay [5] and in [6] was greater than 100 µM in each case. In addition, the TGI in [11], in assay [8], in assay [9] and in assay [10] was greater than 100 µM each time.
Turning to `O=c1[nH]nc(-c2ccccc2)n1/N=C/c1cccs1`, the TGI in assay [1] is 35.8 µM; in assay [2] it was greater than 100 µM; in [3] it was greater than 100 µM; in [4] it was greater than 100 µM; in [5], greater than 100 µM; in assay [6] it was greater than 100 µM. Moreover, the TGI in [11], in [8], in assay [9] and in assay [10] was greater than 100 µM in each case.
Consider `COc1ccc(CCCNC(=O)c2cc(OC)c(OC)cc2CCO)cc1OC`, for which the TGI in assay [1], in [2], in assay [3], in assay [4], in assay [5] and in assay [6] was greater than 100 µM throughout. Moreover, the TGI in assay [7], in assay [8], in assay [9] and in [10] was greater than 100 µM in each case.
Regarding `CCCCCCCCCCCCCCCCCCNC(=S)/N=C\C1=C(O)c2ccccc2C1=O`, the TGI in assay [1] is 29.1 µM; in assay [2], 28 µM; in assay [3] it was 26.2 µM; in [4], 31.9 µM; in assay [5], 21.2 µM; in assay [6] it was 16.5 µM. Besides, the TGI was 31.4 µM in [11], 35.9 µM in [8], 32 µM in assay [9] and 25 µM in assay [10].
For `OC(c1ccc(C(F)(F)F)cc1)C(F)(F)c1nc2ccccc2o1` (stereo not given), the TGI in assay [1], in assay [3], in [4], in assay [5], in assay [6] and in assay [8] was greater than 100 µM in each case. Also, the TGI in assay [9] and in [10] was greater than 100 µM each time.
Consider `O=C(Nc1ccc(-n2ccc3c(NC(=O)c4ccccc4)ncnc32)cc1)Nc1ccc(Cl)c(Cl)c1`, for which the GI50 is 2.6 µM in [1]; 1.95 µM in assay [2]; 1.71 µM in [3]; 6.33 µM in assay [4]; 2.75 µM in assay [6]; 1.28 µM in assay [7]. In addition, the GI50 is 4.58 µM in assay [8], 2.38 µM in assay [9] and 0.965 µM in [10]. Besides, the TGI turned out to be 9.89 µM in assay [1]; 6.64 µM in assay [2]; 5.85 µM in assay [3]; 22.3 µM in assay [4]; 12.9 µM in assay [6]; 7.34 µM in [7]. Moreover, the TGI amounted to 12.6 µM in assay [8], 8.6 µM in assay [9] and 2.9 µM in assay [10].
As for `CCOC(=O)C1=CCOc2cc(N(C)C)ccc21`, the TGI in assay [1], in assay [2], in assay [3], in assay [4], in assay [5] and in assay [7] was greater than 100 µM each time. For the same compound, the TGI in [11], in assay [8], in assay [9] and in assay [10] was greater than 100 µM each time.
